Source: ChEMBL document CHEMBL4732255, “Evaluation of the antiproliferative activity of 106 marine microbial metabolites against human lung cancer cells and potential antiproliferative mechanism of purpuride G” (Bioorg Med Chem Lett, 2021)

How the values were obtained:
[1] = test system: A549; test: Antiproliferative activity against human A549 cells assessed as cell viability at 50 uM measured after 72 hrs by sulforhodamine B assay; type: functional; details: read-out: Activity
[2] = test system: NCI-H157; test: Antiproliferative activity against human NCI-H157 cells assessed as cell viability at 50 uM measured after 72 hrs by sulforhodamine B assay; type: functional; details: read-out: Activity
[3] = test system: A549; test: Antiproliferative activity against human A549 cells assessed as reduction in cell viability measured after 72 hrs by sulforhodamine B assay; type: functional, cell-based; details: A549, 72 h
[4] = test system: NCI-H157; test: Antiproliferative activity against human NCI-H157 cells assessed as reduction in cell viability measured after 72 hrs by sulforhodamine B assay; type: functional, cell-based; details: NCI-H157, 72 h
[5] = test system: HL-60; test: Antiproliferative activity against human HL-60 cells assessed as reduction in cell viability incubated for 72 hrs by sulforhodamine B assay; type: functional, cell-based; details: HL-60, 72 h
[6] = test system: U-251; test: Antiproliferative activity against human U-251 cells assessed as reduction in cell viability incubated for 72 hrs by sulforhodamine B assay; type: functional, cell-based; details: U-251, 72 h
[7] = test system: U-87 MG; test: Antiproliferative activity against human U-87MG cells assessed as reduction in cell viability incubated for 72 hrs by sulforhodamine B assay; type: functional, cell-based, U-87MG ATCC

SMILES	viability at 50 µM [1] [%]	viability at 50 µM [2] [%]	IC50 [3] [µM]	IC50 [4] [µM]	IC50 [5] [µM]	IC50 [6] [µM]	IC50 [7] [µM]
CO[C@@]1(C)N(/C=C\c2ccccc2)C(=O)c2cc3c4ccccc4n(C)c3c(=O)n21	< 50	< 50	10.6	7.2			
COc1cc(O)c2c(c1)C(=O)c1cc(C)cc(O)c1C2=O [PHYSCION]	< 50	< 50	1.5	3			
CO[C@@]1(C)N(CCc2ccccc2)C(=O)c2cc3c4ccccc4n(C)c3c(=O)n21	< 50	< 50	12.9	9.8			
C=C[C@@]1(C)C=C(C)[C@@H]2[C@@H]3[C@H](Oc4ccc(cc4)C[C@]45NC(=O)/C(=C(/O)[C@H]31)[C@H]4[C@@H]1C(=O)C(C)=C3[C@H](C)[C@@H](C)O[C@@]3(O)[C@]1(O)O5)[C@@H]1[C@@H](C)C[C@@H](C)C[C@]12C	< 50	< 50	12.3	22.3			
Cc1cc(O)c2c(c1)C(=O)c1cccc(O)c1C2=O [CHRYSOPHANOL]	< 50	< 50	5.7	2.7			
CC1=C[C@]2(C)[C@H](O)C[C@]34C[C@](O)(Cc5ccc(cc5)O[C@H]5[C@H]([C@H]2C3=O)[C@@H]1[C@]1(C)C[C@H](C)C[C@H](C)[C@@H]51)NC4=O					14.9		
CC1=C[C@@]2(C)[C@@H]3C(=O)[C@]4(C[C@@H]2O)C[C@@](O)(Cc2ccc(cc2)O[C@H]2[C@H]3[C@@H]1[C@]1(C)C[C@H](C)C[C@H](C)[C@@H]21)NC4=O	< 50	< 50	7.3	6.5		22.8	12.4
CO[C@@]1(C)N(/C=C/c2ccccc2)C(=O)c2cc3c4ccccc4n(C)c3c(=O)n21	< 50	< 50	21.6	20.2			
CC(C)[C@@H](C)/C=C/[C@@H](C)[C@H]1CC[C@H]2C3=CC=C4C[C@@H](O)CC[C@]4(C)[C@H]3CC[C@]12C [ERGOSTEROL]	< 50	< 50	19.2	23.3			
C[C@H]1Oc2c(c(O)c3c4c(c(O)ccc24)OC3=O)C1(C)C	< 50	< 50	42.9	41.9			
Cc1cc(O)cc(Oc2cc(C)cc(O)c2)c1 [DIORCINOL]	< 50	< 50	31.6	20.2			
C=C[C@@]1(C)C=C(C)[C@@H]2[C@@H]3[C@H](Oc4ccc(cc4)C[C@]4(OC)C[C@H](C(=O)N4)C(=O)[C@H]31)[C@@H]1[C@@H](C)C[C@@H](C)C[C@]12C	< 50	< 50	25.2	19.6			
CO[C@@]1(C)N(C[C@@H](O)c2ccccc2)C(=O)c2cc3c4ccccc4n(C)c3c(=O)n21	< 50	< 50	44.3	22.9			
CO[C@@]1(C)N(/C=C/c2ccccc2)C(=O)C2=C[C@@]3(C(=O)N(C)c4ccccc43)C(=O)N21	< 50	< 50	38.4	8.1			
CC(=O)c1nc(C(=O)NCCc2ccccc2)cc2c3ccccc3n(C)c12	< 50	< 50	18.2	8.6			
CO[C@@]12Cc3ccc(cc3)O[C@H]3[C@@H]4[C@H]5C(=O)[C@](C[C@@H](O)[C@@]5(C)C=C(C)[C@H]4[C@]4(C)C[C@H](C)C[C@H](C)[C@@H]34)(C1)C(=O)N2	< 50	< 50	13.2	17.8			
CO[C@@]1(C)N(/C=C/c2ccccc2)C(=O)c2cc3c([nH]c4ccccc43)c(=O)n21	< 50	< 50	12.7	15.1			
O=C1c2cc(O)cc(O)c2C(=O)c2c1cc1c(c2O)[C@@H]2CCO[C@@H]2O1	< 50	< 50	45.9	27			
CC(=O)c1nc(C(=O)NCCc2ccccc2)cc2c1[nH]c1ccccc12	< 50	< 50	48.2	19.4			
CC1=C([C@H](C)[C@@H](C)OC=O)C(=O)C2=C(C1=O)[C@@H]1O[C@H](C)[C@@H](C)c3c(C)c(O)cc(c31)O2 [CITRININ H1]	< 50	< 50	20.9	32.4			
C=C[C@@]1(C)C=C(C)[C@@H]2[C@@H]3[C@H](Oc4ccc(cc4)C[C@@H]4C(=O)NC(=O)[C@@H]4C(=O)[C@H]31)[C@@H]1[C@@H](C)C[C@@H](C)C[C@]12C	< 50	< 50	10.3	38.5			
CC1=C[C@]2(C)C(=O)C[C@]34C[C@](O)(Cc5ccc(cc5)O[C@H]5[C@@H]([C@@H]1[C@]1(C)C[C@H](C)C[C@H](C)[C@@H]51)[C@H]2C3=O)NC4=O						1.28	1.06
O=c1ncc2ncn([C@@H]3O[C@@H](CO)[C@H](O)[C@@H]3O)c2[nH]1	< 50	< 50	28.6	0.9			
Cn1c2ccccc2c2cc3n(c(=O)c21)[C@@](C)(O)N(CCc1ccccc1)C3=O	< 50	< 50	21.2	11			
CC1=C[C@@]2(C)[C@@H]3C(=O)[C@]4(C[C@@H]2O)C[C@](O)(Cc2ccc(cc2)O[C@H]2[C@H]3[C@@H]1[C@]1(C)C[C@H](C)C[C@H](C)[C@@H]21)NC4=O					7.4		
